Data as given in patent US10065970B2 (Genentech, Inc., priority 2015, dated 2018).

target: PI3Kα (alpha) (Homo sapiens (Human), UniProt P42336); test: p110α (alpha) PI3K Binding Assay (ADP-Glo lipid kinase reaction); assay type: biochemical; conditions: PI3K alpha 0.2 nM, ATP 40 μM, PIP2:3PS 50 μM, 120 min, room temperature; Ki by Morrison Equation; read-out: PI3Kα-(alpha) ATP (Ki) micromolar
Method: The ability of a compound of the invention to act as an inhibitor of PI3Kα was determined using the methods of Example 901.
PI3K Binding assays are intended for determining the biochemical potency of small molecule PI3K inhibitors. The PI3K lipid kinase reaction is performed in the presence of PIP2:3PS lipid substrate (Promega #V1792) and ATP. Following the termination if the kinase reaction, turnover of ATP to ADP by the phosphorylation of the lipid substrate is detected using the Promega ADP-Glo™ (Promega #V1792) assay. Reactions are carried out using the following conditions:
After 120 minutes of reaction time, the kinase reaction is terminated. Any ATP remaining after the reaction is depleted, leaving only ADP. Then the Kinase Detection Reagent is added to convert ADP to ATP, which is used in a coupled luciferin/luciferase reaction. The luminescent output is measured and is correlated with kinase activity.
All reactions are carried out at room temperature. A 3 μl mixture (1:1) of enzyme/lipid substrate solution is added to a 384 well white assay plate (Perkin Elmer #6007299) containing 50 nl of test compound or DMSO only for untreated controls. The reaction is started by the addition of 2 μl ATP/MgCl2. The kinase reaction buffer contains 50 mM HEPES, 50 mM NaCl, 3 mM MgCl2, 0.01% BSA, 1% DMSO, and enzyme and substrate concentrations as indicated in the above table. The reaction is stopped by the addition of 10 μL ADP-Glo reagent. Plates are read in a Perkin Elmer Envision system using luminescence mode. 10 point dose response curves are generated for each test compound. Ki values for each compound are determined using the Morrison Equation.

PI3Kα (alpha), sequence (P42336 whole entry): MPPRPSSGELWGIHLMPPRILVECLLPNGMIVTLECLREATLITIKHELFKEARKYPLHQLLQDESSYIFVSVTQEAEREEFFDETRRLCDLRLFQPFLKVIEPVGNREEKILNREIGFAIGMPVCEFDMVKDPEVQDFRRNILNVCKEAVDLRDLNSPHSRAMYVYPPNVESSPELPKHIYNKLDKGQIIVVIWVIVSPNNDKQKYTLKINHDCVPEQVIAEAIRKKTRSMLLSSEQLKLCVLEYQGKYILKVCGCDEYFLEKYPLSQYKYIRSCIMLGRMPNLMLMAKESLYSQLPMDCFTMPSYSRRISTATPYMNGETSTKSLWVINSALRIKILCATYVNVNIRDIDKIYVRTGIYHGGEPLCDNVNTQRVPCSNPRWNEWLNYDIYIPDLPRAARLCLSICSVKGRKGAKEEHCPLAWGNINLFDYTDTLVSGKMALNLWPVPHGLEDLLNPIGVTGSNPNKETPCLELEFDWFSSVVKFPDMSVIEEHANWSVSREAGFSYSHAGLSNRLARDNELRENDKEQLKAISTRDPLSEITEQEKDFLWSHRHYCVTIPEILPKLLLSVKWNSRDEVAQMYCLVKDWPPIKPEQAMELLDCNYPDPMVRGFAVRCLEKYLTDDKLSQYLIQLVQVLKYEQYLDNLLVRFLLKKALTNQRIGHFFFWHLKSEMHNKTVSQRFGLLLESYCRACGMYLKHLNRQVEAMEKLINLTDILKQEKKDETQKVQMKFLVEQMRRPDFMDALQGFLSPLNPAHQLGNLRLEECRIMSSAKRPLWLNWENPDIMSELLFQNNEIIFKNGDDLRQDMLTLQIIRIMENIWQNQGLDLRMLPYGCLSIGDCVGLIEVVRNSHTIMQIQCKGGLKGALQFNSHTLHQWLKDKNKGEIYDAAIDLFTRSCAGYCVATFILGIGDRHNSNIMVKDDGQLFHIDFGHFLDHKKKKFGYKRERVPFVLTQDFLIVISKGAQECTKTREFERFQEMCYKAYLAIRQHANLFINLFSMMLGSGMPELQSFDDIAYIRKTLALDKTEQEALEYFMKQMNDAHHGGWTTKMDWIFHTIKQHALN
PI3Kα (alpha), sequence (P27986 whole entry partner): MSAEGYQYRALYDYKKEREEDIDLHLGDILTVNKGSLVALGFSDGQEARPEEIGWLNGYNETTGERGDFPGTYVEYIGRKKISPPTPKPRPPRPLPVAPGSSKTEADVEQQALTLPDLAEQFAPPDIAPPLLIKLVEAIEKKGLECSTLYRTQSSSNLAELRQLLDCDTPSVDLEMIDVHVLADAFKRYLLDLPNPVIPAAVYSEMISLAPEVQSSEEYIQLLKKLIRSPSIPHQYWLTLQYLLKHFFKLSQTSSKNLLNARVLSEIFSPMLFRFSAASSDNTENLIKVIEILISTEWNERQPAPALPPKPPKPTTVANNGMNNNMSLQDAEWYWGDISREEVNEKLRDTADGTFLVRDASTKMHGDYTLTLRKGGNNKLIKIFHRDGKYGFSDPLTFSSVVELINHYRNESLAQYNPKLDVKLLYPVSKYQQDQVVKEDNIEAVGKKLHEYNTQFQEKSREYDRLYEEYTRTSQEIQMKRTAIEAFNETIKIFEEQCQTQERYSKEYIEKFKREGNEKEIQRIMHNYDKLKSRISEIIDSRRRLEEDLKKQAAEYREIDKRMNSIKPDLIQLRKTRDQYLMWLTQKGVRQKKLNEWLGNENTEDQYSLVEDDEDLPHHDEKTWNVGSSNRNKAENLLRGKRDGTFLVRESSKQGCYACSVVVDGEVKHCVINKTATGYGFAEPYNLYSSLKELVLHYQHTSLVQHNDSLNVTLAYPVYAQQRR

Row | SMILES | Ki
1 | NC(=O)[C@@H](Nc1cc2c3c(c1)nc(-c1ccc4c(c1)OCCO4)n3CCCO2)C1CC1 [Example 138, (S)-2-Cyclopropyl-2-((1-(2,3-dihydrobenzo[b][1,4]dioxin-6-yl)-8,9-dihydro-7H-6-oxa-2,9a-diazabenzo[cd]azulen-4-yl)amino)acetamide] | 22.9 nM
2 | NC(=O)[C@@H]1CCCN1c1cc2c3c(c1)nc(-c1ccc(-c4cn[nH]c4)nc1)n3CCCO2 [Example 223, (S)-1-(1-(6-(1H-Pyrazol-4-yl)pyridin-3-yl)-8,9-dihydro-7H-6-oxa-2,9a-diazabenzo[cd]azulen-4-yl)pyrrolidine-2-carboxamide] | 74.6 nM
3 | NC(=O)[C@@H](Nc1cc2c3c(c1)nc(N1CCCC(O)C1)n3CCCO2)C1CC1 (stereo partly drawn) [Example 182, (S)-2-Cyclopropyl-2-[1-(3-hydroxypiperidin-1-yl)-8,9-dihydro-7H-6-oxa-2,9a-diazabenzo[cd]azulen-4-ylamino]acetamide] | 398 nM
4 | NC(=O)[C@@H](Nc1cc2c3c(c1)nc(-c1cnc4c(c1)OCCO4)n3CCCO2)C1CC1 [Example 148, (S)-2-Cyclopropyl-2-((1-(2,3-dihydro-[1,4]dioxino[2,3-b]pyridin-7-yl)-8,9-dihydro-7H-6-oxa-2,9a-diazabenzo[cd]azulen-4-yl)amino)acetamide] | 59 nM
5 | Cc1nn(C)cc1-c1nc2cc(N[C@H](C(N)=O)C3CC3)cc3c2n1CCCO3 [Example 160, (S)-2-Cyclopropyl-2-[1-(1,3-dimethyl-1H-pyrazol-4-yl)-8,9-dihydro-7H-6-oxa-2,9a-diazabenzo[cd]azulen-4-ylamino]acetamide] | 914 nM
6 | NC(=O)[C@@H](Nc1cc2c3c(c1)nc(-c1ccnc4[nH]ncc14)n3CCCO2)C1CC1 [Example 169, (S)-2-((1-(1H-Pyrazolo[3,4-b]pyridin-4-yl)-8,9-dihydro-7H-6-oxa-2,9a-diazabenzo[cd]azulen-4-yl)amino)-2-cyclopropylacetamide] | 3.92 nM
7 | NC(=O)[C@@H](Nc1cc2c3c(c1)nc(-c1ccn4ncnc4c1)n3CCCO2)C1CC1 [Example 132, (S)-2-((1-([1,2,4]Triazolo[1,5-a]pyridin-7-yl)-8,9-dihydro-7H-6-oxa-2,9a-diazabenzo[cd]azulen-4-yl)amino)-2-cyclopropylacetamide] | 1.6 nM
8 | N#Cc1cccc(-c2nc3cc(N[C@H](C(N)=O)C4CC4)cc4c3n2CCCO4)c1 [Example 118, (S)-2-((1-(3-Cyanophenyl)-8,9-dihydro-7H-6-oxa-2,9a-diazabenzo[cd]azulen-4-yl)amino)-2-cyclopropylacetamide] | 561 nM
9 | NC(=O)[C@@H](Nc1cc2c3c(c1)nc(-c1ccc4c(c1)OCO4)n3CCCO2)C1CC1 [Example 114, (S)-2-((1-(Benzo[d][1,3]dioxol-5-yl)-8,9-dihydro-7H-6-oxa-2,9a-diazabenzo[cd]azulen-4-yl)amino)-2-cyclopropylacetamide] | 23.3 nM
10 | NC(=O)[C@@H](Nc1cc2c3c(c1)nc(-c1ccc4nc(Cl)nn4c1)n3CCCO2)C1CC1 [Example 197, (S)-2-((1-(2-Chloro-[1,2,4]triazolo[1,5-a]pyridin-6-yl)-8,9-dihydro-7H-6-oxa-2,9a-diazabenzo[cd]azulen-4-yl)amino)-2-cyclopropylacetamide] | 27.2 nM
11 | OCc1cnc2cc(-c3nc4cc(Br)cc5c4n3CCCO5)ccc2n1 [Example 198, (6-(4-Bromo-8,9-dihydro-7H-6-oxa-2,9a-diazabenzo[cd]azulen-1-yl)quinoxalin-2-yl)methanol] | 677 nM
12 | NC(=O)[C@@H](Nc1cc2c3c(c1)nc(-c1cncs1)n3CCCO2)C1CC1 [Example 136, (S)-2-Cyclopropyl-2-((1-(thiazol-5-yl)-8,9-dihydro-7H-6-oxa-2,9a-diazabenzo[cd]azulen-4-yl)amino)acetamide] | 76.4 nM

The remaining lines, values ahead:

Row | Ki | SMILES
13 | 0.491 nM | NC(=O)[C@@H](Nc1cc2c3c(c1)nc(-c1ccc4sc(N)nc4c1)n3CCCO2)C1CC1 [Example 184, (S)-2-((1-(2-Aminobenzo[d]thiazol-5-yl)-8,9-dihydro-7H-6-oxa-2,9a-diazabenzo[cd]azulen-4-yl)amino)-2-cyclopropylacetamide]
14 | 0.209 nM | NC(=O)[C@@H](Nc1cc2c3c(c1)nc(-c1cc(C(F)(F)F)c4oc(N)nc4c1)n3CCCO2)C1CC1 [Example 235, (S)-2-((1-(2-Amino-7-(trifluoromethyl)benzo[d]oxazol-5-yl)-8,9-dihydro-7H-6-oxa-2,9a-diazabenzo[cd]azulen-4-yl)amino)-2-cyclopropylacetamide]
15 | 0.737 nM | COC[C@@H](Oc1cc2c3c(c1)nc(-c1ccc4nc(N)sc4n1)n3CCCCO2)C(N)=O (single isomer, unassigned) [Example 314]
16 | 87.2 nM | CS(=O)(=O)c1cc(-c2nc3cc(N[C@H](C(N)=O)C4CC4)cc4c3n2CCCO4)ccn1 [Example 159, (S)-2-Cyclopropyl-2-((1-(2-(methylsulfonyl)pyridin-4-yl)-8,9-dihydro-7H-6-oxa-2,9a-diazabenzo[cd]azulen-4-yl)amino)acetamide]
17 | < 0.02 nM | C[C@H](Oc1cc2c3c(c1)nc(-c1ccc(-c4nc[nH]n4)c(F)c1)n3CCCCO2)C(N)=O [Example 269, (S)-2-((1-(3-Fluoro-4-(1H-1,2,4-triazol-3-yl)phenyl)-7,8,9,10-tetrahydro-6-oxa-2,10a-diazacycloocta[cd]inden-4-yl)oxy)propanamide]
18 | < 0.02 nM | C[C@H](Oc1cc2c3c(c1)nc(-c1ccc4oc(N)nc4c1F)n3CCCCO2)C(N)=O [Example 241, (S)-2-((1-(2-Amino-4-fluorobenzo[d]oxazol-5-yl)-7,8,9,10-tetrahydro-6-oxa-2,10a-diazacycloocta[cd]inden-4-yl)oxy)propanamide]
19 | 0.024 nM | C[C@H](Oc1cc2c3c(c1)nc(-c1ccc4nc(N)nnc4c1)n3CCCCO2)C(N)=O [Example 292, (S)-2-((1-(3-Aminobenzo[e][1,2,4]triazin-7-yl)-7,8,9,10-tetrahydro-6-oxa-2,10a-diazacycloocta[cd]inden-4-yl)oxy)propanamide]
20 | 0.056 nM | NC(=O)[C@@H](Nc1cc2c3c(c1)nc(-c1ccc4nc(N)cnc4c1)n3CCCO2)C1CC1 [Example 187, (S)-2-((1-(2-Aminoquinoxalin-6-yl)-8,9-dihydro-7H-6-oxa-2,9a-diazabenzo[cd]azulen-4-yl)amino)-2-cyclopropylacetamide]
21 | 73.5 nM | COc1ncc(-c2nc3cc(N[C@H](C(N)=O)C4CC4)cc4c3n2CCCO4)cn1 [Example 128, (S)-2-cyclopropyl-2-((1-(2-methoxypyrimidin-5-yl)-8,9-dihydro-7H-6-oxa-2,9a-diazabenzo[cd]azulen-4-yl)amino)acetamide]
22 | 0.261 nM | NC(=O)[C@@H]1CCCN1c1cc2c3c(c1)nc(-c1ccc(-c4nc[nH]n4)c(Cl)c1)n3CCCO2 [Example 222, (S)-1-(1-(3-Chloro-4-(1H-1,2,4-triazol-3-yl)phenyl)-8,9-dihydro-7H-6-oxa-2,9a-diazabenzo[cd]azulen-4-yl)pyrrolidine-2-carb oxamide]
23 | 0.0494 nM | CC[C@H](Oc1cc2c3c(c1)nc(-c1cc(F)c4nc(N)sc4c1)n3CCCCO2)C(N)=O [Example 273, (S)-2-((1-(2-Amino-4-fluorobenzo[d]thiazol-6-yl)-7,8,9,10-tetrahydro-6-oxa-2,10a-diazacycloocta[cd]inden-4-yl)oxy)butanamide]
24 | 1.62 nM | CCc1cc(-c2nc3cc(N4CCC[C@H]4C(N)=O)cc4c3n2CCCO4)cc2nc(N)oc12 [Example 224, (S)-1-(1-(2-Amino-7-ethylbenzo[d]oxazol-5-yl)-8,9-dihydro-7H-6-oxa-2,9a-diazabenzo[cd]azulen-4-yl)pyrrolidine-2-carb oxamide]
25 | < 0.02 nM | C[C@@H](C(N)=O)N(C)c1cc2c3c(c1)nc(-c1ccc4oc(N)nc4c1)n3CCCCO2 [Example 254, (S)-2-((1-(2-Aminobenzo[d]oxazol-5-yl)-7,8,9,10-tetrahydro-6-oxa-2,10a-diazacycloocta[cd]inden-4-yl)(methyl)amino)propanamide]
26 | 108 nM | NC(=O)[C@@H](Nc1cc2c3c(c1)nc(-c1ccncc1)n3CCCO2)C1CC1 [Example 165, (S)-2-Cyclopropyl-2-((1-(pyridin-4-yl)-8,9-dihydro-7H-6-oxa-2,9a-diazabenzo[cd]azulen-4-yl)amino)acetamide]
27 | 0.0214 nM | CC[C@H](Oc1cc2c3c(c1)nc(-c1ccc(-c4nc[nH]n4)cc1)n3CCCCO2)C(N)=O (single isomer, unassigned) [Example 268]
28 | 19 nM | NC(=O)[C@@H](Nc1cc2c3c(c1)nc(-c1ccc4cncnc4c1)n3CCCO2)C1CC1 [Example 116, (S)-2-Cyclopropyl-2-((1-(quinazolin-7-yl)-8,9-dihydro-7H-6-oxa-2,9a-diazabenzo [cd]azulen-4-yl)amino) acetamide]
29 | 0.221 nM | C[C@@H]1Cn2c(-c3ccc4oc(N)nc4c3)nc3cc(O[C@@H](C)C(N)=O)cc(c32)O1 [Example 252, (S)-2-(((R)-2-(2-Aminobenzo[d]oxazol-5-yl)-4-methyl-3,4-dihydro-5-oxa-1,2a-diazaacenaphthylen-7-yl)oxy)propanamide]
